The text below walks through data of patent publication US12625142B2, “Assay for measuring binding affinity for cardiolipin of biologically active compounds” (Latvian Institute of Organic Synthesis, priority 2020, dated 2026).

Structures can show the parent of a compound that is named as a salt.

The assay is described as follows: competition binding assay for cardiolipin with fluorescent probe I and CL-DOPC liposomes (25:75 mol %). The following applies: for EC50: 20 mM HEPES buffer, 2.5 μM CL, 5 μM I, means ± S.D. from 3 independent experiments; for relative binding affinity for CL within the studied set (in words): comparison of EC50 values; for EC50 range (in words): pH 7.4 and 6.8; for effect of pH change on interaction with CL: pH 7.4 versus 6.8. The method, then: Lipid vesicles may be composed of CL and a helper phospholipid (preferentially a phosphatidylcholine) or may have a more complex composition with several phospholipids, provided that the formulation is stable in the used medium. […] [18]
Final concentration of the fluorescent probe I may range from 0.2 μM to 25 μM. Optimal incubation temperature is 37° C. because it represents physiological temperature and allows shortening of the incubation time.
A fluorimeter is required that is capable of scanning emission intensity at a desired wavelength, as well as a plate shaker-thermostat. Assay is carried out in 96-well microplates for fluorescence-based assays. […]
Also place a triplicate of CL containing lipid vesicles without a ligand (vehicle); • 3. Place the 96-well microplate in a plate shaker-thermostat for 10 min (500 RPM, 37° C.). • 4. Add appropriate amount of I stock solution (I final concentration 5 μM) to the wells, including wells containing vehicle, and mix gently with a micro pipette by sucking the solution gently up and down (approximately 5 times); • 5. Incubate for 15 min in a plate shaker-thermostat (500 RPM, 37° C.); • 6. Measure fluorescence intensity at an excitation and emission wavelength of 497 and 529 nm, respectively; • 7. […] Plot the normalized fluorescence intensity against the concentration of the ligand on a logarithmic scale; • 9. Fit the titration curve with a suitable fitting model to calculate EC50 values.

In the case of `Cl.N` [Example 2, Ammonium chloride], the “fold lower affinity for CL than Ca^2+ ions” value (pH 7.4, 20 mM HEPES, FIG. 1B) is listed as 23 fold. Where the note is “pH = 7.4”, this compound returned an EC50 of 31853 ± 2.3 µM.
Consider `[Ca+2].[Cl-].[Cl-]` [Example 3, Calcium chloride], for which the “lower EC50 than Mg^2+” value (pH 7.4, 20 mM HEPES, FIG. 1B) is given as “≈ 30%”. Besides, the concentration giving a half-maximal response (EC50) by setting is: (pH = 6.8) 1290 ± 130 µM; (pH = 7.4) 1334 ± 10.1 µM.
`[Cl-].[Cl-].[Mg+2]` [Example 4, Magnesium chloride]: the EC50 (pH = 7.4) was 1930 ± 20.5 µM.
Turning to `COc1cccc2c1C(=O)c1c(O)c3c(c(O)c1C2=O)C[C@@](O)(C(=O)CO)C[C@@H]3O[C@H]1C[C@H](N)[C@@H](O)[C@H](C)O1` [Example 5, (8S,10S)-10-(((2R,4S,5R,6S)-4-amino-5-hydroxy-6-methyltetrahydro-2H-pyran-2-yl)oxy)-6,8,11-trihydroxy-8-(2-hydroxyacetyl)-1-methoxy-7,8,9,10-tetrahydrotetracene-5,12-dione hydrochloride], the EC50 by setting is: (pH = 6.8) 5.86 ± 0.25 µM; (pH = 7.4) 6.94 ± 0.9 µM.
Compound `COc1cccc2c1C(=O)c1c(O)c3c(c(O)c1C2=O)C[C@@](O)(C(C)=O)C[C@@H]3O[C@H]1C[C@H](N)[C@H](O)[C@H](C)O1` [Example 6, (8S,10S)-8-acetyl-10-(((2R,4S,5S,6S)-4-amino-5-hydroxy-6-methyltetrahydro-2H-pyran-2-yl)oxy)-6,8,11-trihydroxy-1-methoxy-7,8,9,10-tetrahydrotetracene-5,12-dione hydrochloride] gave an EC50 (pH = 7.4) of 4.35 ± 1.25 µM.
For `[H]/N=C(/N)N[C@H]1[C@H](O)[C@@H](O)[C@H](O[C@@H]2O[C@@H](C)[C@](O)(C=O)[C@H]2O[C@@H]2O[C@@H](CO)[C@H](O)[C@@H](O)[C@@H]2NC)[C@@H](N/C(N)=N\[H])[C@@H]1O` [Example 10, 2-[(1R,2R,3S,4R,5R,6S)-3-(diaminomethyldeneamino)-4-[(2R,3R,4R,5S)-3-[(2S,3S,4S,5R,6S)-4,5-dihydroxy-6-(hydroxymethyl)-3-(methylamino)oxan-2-yl]oxy-4-formyl-4-hydroxy-5-methyloxolan-2-yl]oxy-2,5,6-trihydroxycyclohexyl]guanidine], the “relative binding affinity for CL within the studied set (in words)” value (shortened to “relative binding affinity”) (20 mM HEPES, listed as streptomycin) was “lowest affinity for CL”. Moreover, the EC50 (pH = 7.4) was determined as 9.82 ± 1.76 µM.
The compound `NC[C@H]1O[C@H](O[C@H]2[C@H](O)[C@@H](O[C@H]3O[C@H](CO)[C@@H](O)[C@H](N)[C@H]3O)[C@H](N)C[C@@H]2N)[C@H](N)C[C@@H]1O` [Example 12, (2S,3R,4S,5S,6R)-4-amino-2-{[(1S,2S,3R,4S,6R)-4,6-diamino-3-{[(2R,3R,5S,6R)-3-amino-6-(aminomethyl)-5-hydroxyoxan-2-yl]oxy}-2-hydroxycyclohexyl]oxy}-6-(hydroxymethyl)oxane-3,5-diol] returned an EC50 (pH = 7.4) of 4.37 ± 0.32 µM.
For `CCCCCCCCC[P+](c1ccccc1)(c1ccccc1)c1ccccc1.[Br-]` [Example 13, Nonyltriphenylphosphonium bromide], the “effect of pH change on interaction with CL” value is given as “affected by changes of pH”. Where the note is “20 mM HEPES”, the “EC50 range (in words)” value is “micromolar range” and the “relative binding affinity” value is given as “lower affinities than studied aminoglycosides or anthracyclines”. Also, the “affinity for CL higher than that of dodecyltrimethylammonium chloride” value (pH 7.4, 20 mM HEPES, FIG. 2A) is given as “≈ 30%”. For the same compound, the EC50 (pH = 6.8) came out at 36.6 ± 2.93 µM. Also, the concentration for a half-maximal effect (EC50) (pH = 7.4) worked out at 19.8 ± 0.75 µM.
As for `CCCCCCCCCCCC[N+](C)(C)C.[Cl-]` [Example 14, Dodecyltrimethylammonium chloride], the “effect of pH change on interaction with CL” value is “affected by changes of pH”. Moreover, under “20 mM HEPES”, the “EC50 range (in words)” value is “micromolar range” and the “relative binding affinity” value was “lower affinities than studied aminoglycosides or anthracyclines”. In addition, the EC50 (pH = 6.8) came out at 74.4 ± 8.47 µM. The EC50 (pH = 7.4) worked out at 30.7 ± 2.75 µM.
For the compound “(2R,3R,4S,5S,6S)-5-amino (((2R,3S,4R,4aR,6S,7R,8aS)-7-amino-6-(((1R,2R,3S,4R,6S)-4,6-diamino-2,3-dihydroxycyclohexyl)oxy)-4-hydroxy-3-(methylamino)octahydropyrano[3,2-b]pyran-2-yl)oxy)-6-(hydroxymethyl)tetrahydro-2H-pyran-3,4-diol sulfate [Example 9]”, the EC50 (pH = 7.4) turned out to be 3.34 ± 0.95 µM.
For the compound Cytochrome c [Example 1], the “relative binding affinity” value (20 mM HEPES) is on record as “the highest binding affinity for CL”. The compound further showed a concentration for a half-maximal effect (EC50) (pH = 6.8) of 0.28 ± 0.02 µM and an EC50 (pH = 7.4) of 0.32 ± 0.06 µM.
